The target in assay [1] is T1, PI3Kβ (p110β/p85α) (Homo sapiens, UniProt P42338).
T1 construct: Full-length N-terminal GST-; GST (N); host or cells: SF9 cells (baculovirus)
The assay is classed as biochemical. Conditions: 1 nM enzyme, ATP 60 μM, 1 μM PIP2, 3 h room temperature; read-out: PI3Kβ IC50.

Assay [2] concerns the target T2, PI3Kδ (p110δ/p85α) (Homo sapiens, UniProt O00329).
T2 construct: Full-length N-terminal GST-; GST (N); host or cells: SF9 cells (baculovirus)
The assay is classed as biochemical. Conditions: 0.25 nM enzyme, ATP 90 μM, 1 μM PIP2, 3 h room temperature; read-out: PI3Kδ IC50.

Assay [3] concerns IPSC-C9 motor neurons. As to the kind of experiment: iPSC MN Survival assay (IPSC-C9). The format is cell-based, human. The settings on record: maximal reduction in hazard ratio vs control at various concentrations; <1.0 increased survival, >1.0 decreased survival.
In assay [4] the test system is ALS patient (SOD1 A4V) iPSC derived motor neurons. As to the kind of experiment: iPSC MN Survival assay (IPSC-SOD1). The settings on record: nutrient deprived media (HBSS), six days, maximal reduction in hazard ratio, <1.0 increased survival. The assay is classed as cell-based, human. Here is the method: Biological Example 4: iPSC MN Survival assay
Fibroblasts from ALS patients with known SOD1 A4V mutation were reprogrammed into inducible pluripotent stem cells (iPSC) and then differentiated to motor neurons. In culture, ALS patient derived motor neurons show increased death rate compared to motor neurons derived from healthy individuals in a stressed condition (nutrient deprived media, Hank's buffered salt solution—HBSS). […] Cell rescue was measured following more than two different concentrations of each compound for six days with greater than four replicates in a 96-well format to ensure studies with power >0.8. Cells are transduced with a GFP reporter and imaged once a day to track survival. A broad-spectrum caspase inhibitor served as the positive control.
Microscopy image-based readout: Cells are transduced with a GFP reporter and imaged once a day with a blue laser to track survival. Imagers used include the Biotek Cytation 5 and Thermo Fisher EVOS Auto FL 2. All Images undergo uniform processing consisting of rolling hat background subtraction and contrast adjustment. Microscopy images are analyzed using software proprietary to Verge. Cells are identified by their shape and each cell is tracked across images and time points for each well. Survival is visually assessed from the Kaplan-Meier curves. Survival of the cells is modeled and tested using a mixed effects Cox regression where each well is modeled as the random effect, and the group (control/treatment) as the fixed effect. […]. Data are presented in Table 7 as the maximal reduction in hazard ratio scores measured at various concentrations.

The target of assay [5] is T3, PI3Kα (p110α/p85α) (Homo sapiens, UniProt P42336).
T3 construct: Full-length N-terminal; FLAG (N); host or cells: SF9 cells (baculovirus)
T3 sequence (P42336 whole entry): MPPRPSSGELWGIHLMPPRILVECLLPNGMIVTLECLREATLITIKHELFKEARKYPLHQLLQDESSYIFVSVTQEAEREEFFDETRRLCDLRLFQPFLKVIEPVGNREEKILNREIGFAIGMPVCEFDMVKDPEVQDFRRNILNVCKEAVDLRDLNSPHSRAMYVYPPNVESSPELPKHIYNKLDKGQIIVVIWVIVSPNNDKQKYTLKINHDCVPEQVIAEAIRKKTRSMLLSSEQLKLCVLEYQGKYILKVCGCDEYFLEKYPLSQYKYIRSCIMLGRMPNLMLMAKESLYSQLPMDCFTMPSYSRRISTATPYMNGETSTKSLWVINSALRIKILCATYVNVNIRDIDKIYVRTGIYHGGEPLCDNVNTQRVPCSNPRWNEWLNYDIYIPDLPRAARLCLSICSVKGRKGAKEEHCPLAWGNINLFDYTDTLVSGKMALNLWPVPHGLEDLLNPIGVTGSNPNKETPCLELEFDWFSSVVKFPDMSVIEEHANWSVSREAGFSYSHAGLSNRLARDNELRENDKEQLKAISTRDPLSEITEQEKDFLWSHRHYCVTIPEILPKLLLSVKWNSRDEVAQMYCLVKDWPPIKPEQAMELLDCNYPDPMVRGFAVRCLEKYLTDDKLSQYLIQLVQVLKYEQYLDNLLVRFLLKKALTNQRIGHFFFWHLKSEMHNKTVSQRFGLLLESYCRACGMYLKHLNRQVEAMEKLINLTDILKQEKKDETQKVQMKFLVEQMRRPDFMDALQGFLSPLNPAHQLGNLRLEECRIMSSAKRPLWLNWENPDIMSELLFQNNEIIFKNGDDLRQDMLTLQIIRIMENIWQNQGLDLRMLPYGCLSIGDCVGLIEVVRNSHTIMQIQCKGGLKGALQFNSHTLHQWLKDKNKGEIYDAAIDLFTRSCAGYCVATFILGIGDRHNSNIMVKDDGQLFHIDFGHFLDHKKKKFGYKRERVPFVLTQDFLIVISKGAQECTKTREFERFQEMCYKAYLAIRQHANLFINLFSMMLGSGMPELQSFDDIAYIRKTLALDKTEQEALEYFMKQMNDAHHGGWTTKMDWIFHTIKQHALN
T3 sequence (P27986 whole entry, further chain): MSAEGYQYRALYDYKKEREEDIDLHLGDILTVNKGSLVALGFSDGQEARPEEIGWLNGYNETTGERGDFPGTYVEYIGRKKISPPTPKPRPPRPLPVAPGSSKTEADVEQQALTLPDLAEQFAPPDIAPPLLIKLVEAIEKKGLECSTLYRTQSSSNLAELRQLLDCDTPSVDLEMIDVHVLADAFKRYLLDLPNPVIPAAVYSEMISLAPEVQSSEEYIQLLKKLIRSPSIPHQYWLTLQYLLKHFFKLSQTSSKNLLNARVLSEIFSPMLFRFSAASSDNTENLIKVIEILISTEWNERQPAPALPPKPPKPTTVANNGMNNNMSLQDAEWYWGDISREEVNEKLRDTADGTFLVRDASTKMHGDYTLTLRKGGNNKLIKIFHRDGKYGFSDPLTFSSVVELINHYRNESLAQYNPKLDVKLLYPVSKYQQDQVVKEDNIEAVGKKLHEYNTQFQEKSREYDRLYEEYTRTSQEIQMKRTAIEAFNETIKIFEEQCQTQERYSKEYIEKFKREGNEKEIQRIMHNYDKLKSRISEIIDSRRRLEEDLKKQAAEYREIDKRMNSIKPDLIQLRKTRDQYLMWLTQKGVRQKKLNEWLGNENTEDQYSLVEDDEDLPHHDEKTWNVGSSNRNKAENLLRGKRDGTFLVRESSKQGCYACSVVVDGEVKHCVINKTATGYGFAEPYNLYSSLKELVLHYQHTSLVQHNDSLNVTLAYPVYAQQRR
The format is biochemical. The settings on record: 0.5 nM enzyme, ATP 90 μM, 1 μM PIP2, 3 h room temperature; read-out: PI3Kα IC50.

Assay [6] has as its target T4, Full length human recombinant PIKFYVE (Homo sapiens, UniProt Q9Y2I7, L932S/Q1183K/Q995L/S1033A/S696N/T998S).
T4 construct: Full length human recombinant PIKFYVE; purchased Carna Biosciences (Kobe, Japan); host or cells: baculovirus expression system (insect cells)
As to the kind of experiment: Inhibition of PIKfyve (microfluidic electrophoresis kinase assay). The format is biochemical. The settings on record: 2 nM enzyme, 1 μM PI3P, 3 h at room temperature, 12 concentrations; read-out: PIKfyve IC50. An outline of the steps: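 GST-tagged full-length human PIKfyve (2 nM, baculovirus) with 1 μM fluorescent PI3P/PS substrate and […] in HEPES pH 7.5, Mg2+/Mn2+, 1% DMSO, 3 h at room temperature; 12 compound concentrations. PI(3,5)P product/substrate peaks resolved by microfluidic electrophoresis; IC50 from four-parameter fit of %-inhibition.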

T1 sequence (P42338 whole entry): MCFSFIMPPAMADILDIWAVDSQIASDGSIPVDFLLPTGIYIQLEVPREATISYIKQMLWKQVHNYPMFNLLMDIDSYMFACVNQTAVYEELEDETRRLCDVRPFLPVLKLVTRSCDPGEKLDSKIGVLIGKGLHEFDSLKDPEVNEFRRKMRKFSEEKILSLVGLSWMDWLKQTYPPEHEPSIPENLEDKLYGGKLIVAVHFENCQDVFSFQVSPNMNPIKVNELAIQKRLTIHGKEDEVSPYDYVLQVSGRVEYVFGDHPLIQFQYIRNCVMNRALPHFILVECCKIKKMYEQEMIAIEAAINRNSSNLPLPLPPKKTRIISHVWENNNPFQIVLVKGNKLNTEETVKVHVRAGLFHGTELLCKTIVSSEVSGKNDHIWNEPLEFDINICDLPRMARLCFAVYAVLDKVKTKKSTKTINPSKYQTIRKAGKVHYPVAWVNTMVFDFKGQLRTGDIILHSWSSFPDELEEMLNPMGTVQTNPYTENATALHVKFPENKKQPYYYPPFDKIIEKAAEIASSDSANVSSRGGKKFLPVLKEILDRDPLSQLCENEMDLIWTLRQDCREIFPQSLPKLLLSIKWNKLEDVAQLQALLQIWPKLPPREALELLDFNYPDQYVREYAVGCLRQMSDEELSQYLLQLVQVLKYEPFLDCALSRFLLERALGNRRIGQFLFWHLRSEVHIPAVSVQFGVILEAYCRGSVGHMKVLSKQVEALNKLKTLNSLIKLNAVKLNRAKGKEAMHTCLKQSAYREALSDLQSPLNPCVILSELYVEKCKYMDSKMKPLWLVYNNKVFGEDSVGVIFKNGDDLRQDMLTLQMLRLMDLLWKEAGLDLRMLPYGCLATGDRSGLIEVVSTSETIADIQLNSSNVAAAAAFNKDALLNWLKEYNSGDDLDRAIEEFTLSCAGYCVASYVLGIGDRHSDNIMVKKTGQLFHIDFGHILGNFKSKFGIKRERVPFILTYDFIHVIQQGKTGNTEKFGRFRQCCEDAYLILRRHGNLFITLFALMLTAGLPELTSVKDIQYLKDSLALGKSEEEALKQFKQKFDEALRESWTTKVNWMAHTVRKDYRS
T1 sequence (P27986 whole entry, further chain): as the sequence (P27986 whole entry, further chain) above
T4 sequence (Q9Y2I7 whole entry S696N/L932S/Q995L/T998S/S1033A/Q1183K): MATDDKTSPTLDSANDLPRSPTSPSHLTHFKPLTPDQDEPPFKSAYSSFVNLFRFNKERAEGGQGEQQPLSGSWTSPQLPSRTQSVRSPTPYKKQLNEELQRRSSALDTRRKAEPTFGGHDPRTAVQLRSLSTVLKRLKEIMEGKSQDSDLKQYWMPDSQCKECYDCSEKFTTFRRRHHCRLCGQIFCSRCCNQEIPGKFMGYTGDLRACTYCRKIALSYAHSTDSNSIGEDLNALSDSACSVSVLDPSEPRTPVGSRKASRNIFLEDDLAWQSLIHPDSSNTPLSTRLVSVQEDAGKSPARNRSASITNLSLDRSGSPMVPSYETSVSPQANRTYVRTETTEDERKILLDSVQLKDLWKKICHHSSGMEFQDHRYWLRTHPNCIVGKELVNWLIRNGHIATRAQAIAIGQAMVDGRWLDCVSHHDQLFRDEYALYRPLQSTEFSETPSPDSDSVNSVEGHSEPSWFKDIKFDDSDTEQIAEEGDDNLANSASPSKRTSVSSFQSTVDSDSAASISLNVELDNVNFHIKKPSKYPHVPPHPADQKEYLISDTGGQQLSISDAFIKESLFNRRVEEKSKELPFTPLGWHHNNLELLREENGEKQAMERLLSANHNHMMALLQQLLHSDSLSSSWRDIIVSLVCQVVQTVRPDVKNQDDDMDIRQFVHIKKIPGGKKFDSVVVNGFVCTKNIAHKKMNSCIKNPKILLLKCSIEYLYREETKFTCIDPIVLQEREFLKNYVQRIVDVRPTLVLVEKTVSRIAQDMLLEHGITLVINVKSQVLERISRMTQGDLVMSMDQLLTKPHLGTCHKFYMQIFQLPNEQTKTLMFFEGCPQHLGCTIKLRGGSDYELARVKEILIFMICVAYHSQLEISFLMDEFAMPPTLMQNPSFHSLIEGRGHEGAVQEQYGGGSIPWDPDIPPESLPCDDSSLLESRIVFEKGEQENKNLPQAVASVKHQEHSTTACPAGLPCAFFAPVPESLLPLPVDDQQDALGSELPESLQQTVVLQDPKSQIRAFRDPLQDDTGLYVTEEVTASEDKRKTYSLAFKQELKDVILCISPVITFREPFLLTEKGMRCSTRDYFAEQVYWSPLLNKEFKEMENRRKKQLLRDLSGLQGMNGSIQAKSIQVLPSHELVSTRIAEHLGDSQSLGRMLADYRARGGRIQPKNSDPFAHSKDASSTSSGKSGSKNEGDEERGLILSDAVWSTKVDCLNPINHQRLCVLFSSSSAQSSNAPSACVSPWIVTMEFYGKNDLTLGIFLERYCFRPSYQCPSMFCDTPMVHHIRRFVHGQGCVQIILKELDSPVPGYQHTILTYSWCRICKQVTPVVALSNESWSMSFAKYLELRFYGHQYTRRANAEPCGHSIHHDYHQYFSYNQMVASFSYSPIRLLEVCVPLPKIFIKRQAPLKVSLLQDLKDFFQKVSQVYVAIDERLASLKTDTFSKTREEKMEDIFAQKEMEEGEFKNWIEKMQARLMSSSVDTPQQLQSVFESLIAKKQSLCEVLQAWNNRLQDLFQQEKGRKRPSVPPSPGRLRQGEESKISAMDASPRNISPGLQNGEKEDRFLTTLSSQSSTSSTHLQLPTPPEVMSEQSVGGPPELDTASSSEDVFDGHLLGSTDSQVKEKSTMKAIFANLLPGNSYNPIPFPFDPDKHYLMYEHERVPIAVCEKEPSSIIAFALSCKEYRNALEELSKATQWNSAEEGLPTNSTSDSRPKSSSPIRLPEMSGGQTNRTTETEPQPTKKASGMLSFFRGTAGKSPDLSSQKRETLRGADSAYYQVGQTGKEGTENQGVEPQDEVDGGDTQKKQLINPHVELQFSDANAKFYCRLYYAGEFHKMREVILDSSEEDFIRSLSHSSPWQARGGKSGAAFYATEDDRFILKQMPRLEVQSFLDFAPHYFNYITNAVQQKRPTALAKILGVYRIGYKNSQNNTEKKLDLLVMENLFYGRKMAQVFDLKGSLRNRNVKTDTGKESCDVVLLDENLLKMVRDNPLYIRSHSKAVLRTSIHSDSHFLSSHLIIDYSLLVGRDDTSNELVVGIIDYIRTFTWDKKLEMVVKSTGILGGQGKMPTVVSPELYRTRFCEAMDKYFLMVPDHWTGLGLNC

As a reminder, the IC50 is the concentration at which inhibition is half-maximal. As for `c1ccc(-c2cc(Nc3nc(N4CCOCC4)c4oc5ncccc5c4n3)[nH]n2)cc1` [Example 9, 4-Morpholino-N-(3-phenyl-1H-pyrazol-5-yl)pyrido[3′,2′:4,5]furo[3,2-d]pyrimidin-2-amine], the IC50 in assay [1] is greater than 10000 nM; in assay [2], 75 nM; in assay [5], 144 nM; in assay [6], 23 nM. For the same molecule, the “IPSC-C9 (Hazard Ratio)” value in assay [3] is listed as 0.65. In addition, in assay [4], the “IPSC-SOD1 (Hazard Ratio)” value was found to be 0.81.

As for `c1cnc2oc3c(N4CCOCC4)nc(Nc4cc(-c5ccncc5)n[nH]4)nc3c2c1` [Example 10, 4-Morpholino-N-(3-(pyridin-4-yl)-1H-pyrazol-5-yl)pyrido[3′,2′:4,5]furo[3,2-d]pyrimidin-2-amine], the IC50 in assay [1] worked out at 1310 nM; in assay [2], 37 nM; in assay [5], 117 nM; in assay [6], 185 nM. The “IPSC-C9 (Hazard Ratio)” value in assay [3] was 0.96. Besides, the “IPSC-SOD1 (Hazard Ratio)” value in assay [4] is 1.04.

Regarding `Cc1cc(N(C)c2nc(N3CCOCC3)c3oc4ncccc4c3n2)nn1C` [Example 11, N-(1,5-Dimethyl-1H-pyrazol-3-yl)-N-methyl-4-morpholinopyrido[3′,2′:4,5]furo[3,2-d]pyrimidin-2-amine], the IC50 in assay [1] was 7030 nM; in assay [2], 278 nM; in assay [5], 244 nM; in assay [6] it was greater than 10000 nM. In addition, the “IPSC-C9 (Hazard Ratio)” value in assay [3] was found to be 0.99. Further, in assay [4], the “IPSC-SOD1 (Hazard Ratio)” value is 1.1.

On to `c1ccc(Nc2nc(N3CCOCC3)c3oc4ncccc4c3n2)cc1` [Example 37, 4-morpholino-N-phenylpyrido[3′,2′:4,5]furo[3,2-d]pyrimidin-2-amine], for which the IC50 came to 1040 nM in assay [1], 41 nM in assay [2], 67 nM in assay [5] and 439 nM in assay [6]. The “IPSC-C9 (Hazard Ratio)” value in assay [3] turned out to be 0.99. For the same molecule, the “IPSC-SOD1 (Hazard Ratio)” value in assay [4] was 1.03.

Regarding `Cc1cccc(-c2cc(Nc3nc(N4CCOCC4)c4oc5ncccc5c4n3)[nH]n2)c1` [Example 49, 4-morpholino-N-(3-(m-tolyl)-1H-pyrazol-5-yl)pyrido[3′,2′:4,5]furo[3,2-d]pyrimidin-2-amine], the “IPSC-C9 (Hazard Ratio)” value in assay [3] came to 1.2. In addition, the “IPSC-SOD1 (Hazard Ratio)” value in assay [4] worked out at 1.03. The IC50 in assay [6] came to 38 nM.

For the origin of these results see US20230038929A1, “Fused Tricyclic Heterocyclic Compounds and Uses Thereof” (Verge Analytics, Inc., priority 2019, published 2023).
